The values that follow come from PMC8103899, “Allyl Isothiocyanate: A TAS2R38 Receptor-Dependent Immune Modulator at the Interface Between Personalized Medicine and Nutrition” (Frontiers in Immunology, 2021).

Where two headings read alike, the source gives them in different places.

Data set [1] is described as follows: Human food intervention: AITC metabolite plasma levels after mustard intake (LC-ESI-MS/MS). The class given is in vivo. As to conditions: single intake of an AITC containing food product. As to the method:
AITC metabolite quantification was carried out in blood plasma samples derived from an intervention study at the University Medical Center in Freiburg, Germany. Samples were from 4 healthy young adults (3 females, 1 male, aged between 30-40 years) having a normal BMI, and were non-smokers. Each subject consumed one time 10 g of a commercially available mustard preparation ([…] Munich, Germany) containing 24.74 ± 1.76 μmol/g fresh weight preformed AITC on an empty stomach with optional consumption of white bread. The intervention was preceded by a 48 h wash-out phase consisting of a glucosinolate/ITC-free diet. After 30 min and optionally 60 min, blood was collected by venipuncture in serum tubes and centrifuged at 2000g for 10 min, 4°C to obtain serum. Subsequently, TFA was added and the samples frozen at -80°C. The preparation of serum samples (300 μL serum and 100 μL TFA) was conducted as described by Kühn et al. ([37]). The frozen samples were thawed, vortexed (1 min) and centrifuged (4 °C, 10 min, 20.854 x g). The supernatant was transferred to SPE cartridges. Prior to transferring, SPE cartridges were conditioned with acetonitrile (ACN, 3 mL) and equilibrated with water (3 mL). After sample application, the cartridges were washed with formic acid (FA, 3 mL, 0.1% in water) and the metabolites were eluted with FA (3 mL, 0.1% in ACN:water, 90:10, v/v). […] The samples were re-dissolved in 100 μL FA (0.1% in ACN:water, 90:10, v/v). Sample aliquots of 5 μL were injected into the LC-ESI-MS/MS system. LC-ESI-MS/MS analysis was performed on an API4000 triple quadrupole mass spectrometer (AB Sciex Germany GmbH, Darmstadt, Germany) equipped with an Agilent 1200 LC system (Agilent Technologies Deutschland GmbH & Co. KG, Waldbronn, Germany). For data acquisition and processing the software Analyst 1.6.1 (AB Sciex Germany GmbH, Darmstadt, Germany) was used. […] AITC-CysGly; AITC-Cys; AITC-NAC) was conducted according to Platz et al. ([38]) with minor modifications. The separation was performed on a Kinetex C18 column (Phenomenex, 5 μm, 100 Å, 150 x 2.1 mm). The autosampler operated at 4°C and the set temperature for the oven was 20°C. A constant flow of 300 μL/min was used for the mobile phase which consisted of 0.1% FA in water (A) and 0.1% FA in ACN (B). […] In order to equilibrate the column, A was increased to 90% and held for 5 min. The relevant MS parameters include an entrance potential of -10 V, a desolvation gas temperature of 450°C, ion spray potential of -4.5 kV, gas 1 and gas 2 at 46 psi and a curtain gas pressure at 10 psi.

Data set [2] concerns TRPA1. As to conditions: TRPA1 overexpressing cells, read-out: EC50 for the activation of TRPA1, cited from earlier work.
On the set-up of data set [3]: method as in PMID 26317351. The settings on record: rats, oral dosing; cited from earlier work.
Data set [4] concerns the target TAS2R38 receptor (Homo sapiens, UniProt P59533, A262V). Nature of the data set: Calcium flux assay in human PBMC (flow cytometry, Fluo-4 AM). As to conditions: AVI/AVI, 100 µM AITC. For orientation: A change in cytosolic calcium serves as a functional read-out for many receptors and channels.
Data set [5] concerns the target T1, TAS2R38 receptor (Homo sapiens, UniProt P59533, A49P/I296V).
T1 sequence (P59533 1-333 A49P/I296V): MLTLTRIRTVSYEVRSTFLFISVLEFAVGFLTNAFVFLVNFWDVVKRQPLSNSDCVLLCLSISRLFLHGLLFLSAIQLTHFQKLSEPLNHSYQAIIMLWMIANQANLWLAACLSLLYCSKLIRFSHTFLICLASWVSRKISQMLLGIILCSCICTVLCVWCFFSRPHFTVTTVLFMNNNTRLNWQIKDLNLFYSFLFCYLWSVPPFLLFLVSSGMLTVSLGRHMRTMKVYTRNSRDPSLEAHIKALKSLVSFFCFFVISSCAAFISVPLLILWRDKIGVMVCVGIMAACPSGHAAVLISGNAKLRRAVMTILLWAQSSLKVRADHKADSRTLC
The data set is described as above.

For data set [6], the system named is TAS2R38 receptor. The description is as above. As to conditions: PAV/AVI.

Chain of TAS2R38 receptor (Homo sapiens, UniProt P59533, A262V) (P59533 whole entry A262V): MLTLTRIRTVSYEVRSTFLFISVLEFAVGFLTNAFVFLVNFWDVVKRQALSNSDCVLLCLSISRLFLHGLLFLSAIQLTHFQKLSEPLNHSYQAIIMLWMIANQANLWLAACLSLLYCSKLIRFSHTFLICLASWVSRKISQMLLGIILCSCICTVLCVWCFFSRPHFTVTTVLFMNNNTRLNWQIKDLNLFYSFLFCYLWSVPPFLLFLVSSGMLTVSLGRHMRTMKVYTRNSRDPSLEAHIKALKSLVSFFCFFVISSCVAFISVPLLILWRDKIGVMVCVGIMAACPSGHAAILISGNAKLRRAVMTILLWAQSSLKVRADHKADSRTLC

What is called EC50 is the concentration needed to bring the measured effect to its halfway point. With `C=CCN=C=S` [AITC, allyl isothiocyanate], the AITC plasma levels entry in data set [1] is given as “around one”. Besides, the EC50 is […] in data set [2] (ref 45) and […] in data set [2] (ref 46). Also, the “time to peak plasma level” value in data set [3] is reported as at most 0.5 h. In addition, the calcium influx in data set [4] (lymphocytes) worked out at 24%; in data set [5] (PAV/PAV cells, 0.01 µM AITC (increase between 0.01 to 1 µM)), 28%; in data set [5] (PAV/PAV cells, 1 µM AITC (increase between 0.01 to 1 µM)), 35%; in data set [5] (PAV/PAV cells, 10 µM AITC (increase between 10-100 µM)), 45%; in data set [5] (PAV/PAV cells, 100 µM AITC (increase between 10-100 µM)), 72%; in data set [5] (lymphocytes, PAV/PAV, 1 µM AITC), 25%. Further, the calcium influx in data set [6] (lymphocytes, 100 µM AITC) worked out at 21%. The “calcium flux (statistically significant)” value in data set [4] (monocytes) was determined as 20%; in data set [5] (monocytes, PAV/PAV, 0.01 µM AITC), 22%; in data set [6] (monocytes, 10 µM AITC) it was 18%. Moreover, the threshold concentration in data set [5] (monocytes, calcium flux) is reported as […].
